The values below come from the METLIN SMRT retention time set (Domingo-Almenara et al. 2019).

A short description of the series: gradient 5% acetonitrile 3 min, to 50% in 2 min, to 85% in 15 min, held 3 min, 100 µL/min. Particulars: column: Zorbax Extend-C18 2.1 x 50 mm; eluents: water / acetonitrile, 0.1% formic acid. Summed up: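 Retention times of pure standards were taken from adduct peaks that were selected by computer and manually inspected. Over 3 months, mixtures of ~100 molecules were run by HPLC–quadrupole time-of-flight mass spectrometry in positive and negative ionization mode. The Zorbax Extend-C18 column (2.1 × 50 mm, 1.8 μm) ran at 100 μL/min in water and acetonitrile, each containing 0.1% formic acid, with 40 μL dead volume and 900 μL dwell volume.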
Molecule `CCCn1c(=O)c(C)nc2cc(-c3noc(-c4cc(OC)c(OC)c(OC)c4)n3)ccc21` came in with an RP-LC retention time of 1110 s. As for `CCc1ccc(NC(=O)C2CCCN2S(=O)(=O)c2cc3c(cc2Cl)NC(=O)CO3)cc1` (centres undefined), the RP-LC retention time amounted to 868 s. Then `COc1cc(OC)cc(C(=O)NCC(O)Cc2ccccc2)c1` (centres undefined), with 706 s. The figure for `COCCN(CC1(C)CCOCC1)C(=O)NCc1ccc(F)cc1` is 752 s; for `CCN(C(=O)c1nc(N2CCOCC2)c2cnn(C)c2n1)c1ccccc1` it is 693 s; for `Cc1cc(C#N)cc(C)c1Oc1nc(Nc2ccc(C#N)cc2)nc(N)c1Br` it is 1100 s. Then `Cc1ccc(N2CCN(S(=O)(=O)c3cc(-c4nnc(C5CC5)o4)co3)CC2)cc1`, with 818 s; and `COC(=O)C1=CN(C2CC2)c2cc(N3CCCCCC3)c(F)cc2S1(=O)=O`, with 980 s; and `CCOc1ccc(-c2cn3ccn(-c4ccc(OCC)cc4)c(=O)c3n2)cc1`, with 896 s. Molecule `Cc1ccc(NC(=O)Nc2c(-c3ccncc3)nc3ccccn23)cc1F` came in with an RP-LC retention time of 630 s. As for `Cc1nc(N2CCN(c3ncccn3)CC2)nc2c1C(=O)CC(c1ccc(F)cc1)C2` (centres undefined), the RP-LC retention time worked out at 1190 s. The figure for `COc1ccc(NS(=O)(=O)c2ccc(/C=C\c3onc(C)c3NC(C)=O)cc2)cc1` is 779 s; for `O=C(CSc1ccc(N2CCCC2)nn1)Nc1ccc(Cl)cc1` it is 647 s; for `O=C(Nc1nnc(C2CC(=O)N(c3ccc(F)cc3)C2)o1)c1ccc(Br)cc1` (centres undefined) it is 783 s.

`COc1ccc(Cl)c2c(=O)c3c([nH]c12)CCN(CC(=O)Nc1c(C)cccc1C)C3` returned an RP-LC retention time of 621 s. Molecule `Cc1ccc(NC(=O)c2cc(C(C)C)n3nccc3n2)c(C)c1` registered an RP-LC retention time of 1200 s.

In the case of `CCN(CC)CCNc1ncnc2onc(-c3ccc(F)cc3)c12`, the RP-LC retention time came to 625 s. The figure for `Cc1ccccc1CNC1=NCCNC12CCN(S(=O)(=O)c1ccc3c(c1)CCCC3)CC2` is 851 s. The figure for `COc1ccc(NC(=O)N2CCC3(CC2)NC(=O)c2cc(C)ccc2N3C)cc1` is 742 s.

For `CC1CCN(S(=O)(=O)c2ccc(-c3nnc(C(=O)NCCN(C)C)o3)cc2)CC1`, the RP-LC retention time came out at 670 s. `CCc1cccc(NC(=O)Cn2c(=O)n(-c3ccc(F)cc3)c(=O)c3c2cc(C)n3C)c1`: the RP-LC retention time turned out to be 914 s.

For `O=C(NCc1cccc(C(F)(F)F)c1)C1CCN(c2cnc3nccnc3c2)CC1`, the RP-LC retention time is 754 s. Then `Cc1ccn2cc(C(=O)NCc3ccccc3Cl)nc2c1`, with 675 s. The figure for `CCCCN(C)C(=O)c1sc(-c2cn(C(C)C)c3ncccc23)nc1C` is 1010 s; for `Cc1ccccc1NC(=O)CN1CCc2[nH]c3c(C)cc(F)cc3c(=O)c2C1` it is 608 s; for `CCC(=O)N1CCc2c(sc3ncnc(NCc4ccccn4)c23)C1` it is 559 s. The molecule `O=C(O)c1cnc(NCc2ccccn2)nc1-c1cccc(Cl)c1` returned an RP-LC retention time of 613 s. Then `CC(C)CCNC(=O)CN1C(=O)C2CCCCN2c2ccc(S(=O)(=O)N3CCCC3)cc21` (centres undefined), with 940 s.

In turn, `O=C(NCCn1nc(-c2ccc(Cl)cc2)ccc1=O)c1csc(-c2ccccc2)n1` showed an RP-LC retention time of 854 s. Then `O=C(NCC1CCCCC1)C1CCN(C(=O)c2cc3ccsc3n2Cc2ccc(Cl)cc2)CC1`, with 1170 s; and `Cc1cc(C)cc(NC(=O)Cn2nc3c(N(C)C4CCCCC4)nccn3c2=O)c1`, with 846 s. Then `Cc1ccc(C)c(S(=O)(=O)Nc2ccc(N3CCN(c4ccccn4)CC3)c(C(=O)O)c2)c1`, with 660 s; and `Cn1cc(CC(=O)NCc2cccc(Cl)c2)c2cccnc21`, with 725 s. The molecule `Cc1sc2ncnc(SCc3ccco3)c2c1C` yielded an RP-LC retention time of 1150 s. Then `CCOc1ccc(Cl)cc1S(=O)(=O)N1CCC(C(=O)Nc2ccccc2C(=O)OC)CC1`, with 1150 s; and `O=C(Nc1ccccc1)C1CCCN(C(=O)C2Sc3ccccc3NC2=O)C1` (centres undefined), with 772 s; and `Cc1ccc(-c2csc(NC(=O)CCCOc3ccccc3C)n2)cc1`, with 1300 s. As to `O=C(NCc1ccc(-c2noc(-c3ccc(F)c(F)c3)n2)s1)C1CC1`, the RP-LC retention time was determined as 903 s. Then `CCC(=O)n1nc(C)c(S(=O)(=O)N2CCC(C)CC2)c1C`, with 1150 s. The figure for `CCOC(=O)CCC(=O)Nc1nnc(-c2sc(C)nc2C)o1` is 621 s; for `CNC(=O)c1sc(-c2cccc(C)c2)nc1C` it is 797 s; for `O=C(NCc1cccc(Cl)c1)c1c(O)c2cccnc2n(-c2cccc(F)c2)c1=O` it is 1240 s. Then `COc1ccc(C(=O)NC2CCN(c3cc(-c4ccc(OC)cc4)[nH]n3)C2)cc1` (centres undefined), with 706 s; and `O=C(c1ccc(Cl)cc1)N1CCC2(CC1)N=C(c1ccccc1)NO2`, with 824 s; and `Cn1cc(C(=O)NCc2ccc(F)c(Cl)c2)c(S(=O)(=O)N2CCCCC2)n1`, with 876 s. Turning to `CCc1nc2cc(-c3noc(-c4ccc(OC)nc4)n3)ccc2o1`, the RP-LC retention time was determined as 1180 s. In the case of `COc1cc(Nc2nc(C(=O)N3CCOCC3)cc3occc23)cc(OC)c1OC`, the RP-LC retention time was determined as 710 s. The figure for `O=C(/C=C/C(=O)N1CCc2ccccc2C1)N1CCc2ccccc2C1` is 888 s; for `O=C(c1nc2nc(-c3cccs3)cc(C(F)(F)F)n2n1)N1CCN(c2ccccn2)CC1` it is 672 s; for `O=C(C1CCN(c2ncnc3c2oc2ccccc23)CC1)N1CCN(C2CCCCC2)CC1` it is 590 s. The figure for `O=C(NCCn1ncccc1=O)c1cccc(C(F)(F)F)c1` is 646 s; for `CCOC(=O)c1ccc(NC(=O)Cn2nc3n(c2=O)CCCCC3)cc1` it is 685 s; for `Cc1ccc(NC(=O)c2c(O)c3cccnc3n(-c3ccc(F)cc3)c2=O)c(C)c1` it is 1320 s.

`O=C(NCCc1cccs1)c1nnc(-c2ccc(S(=O)(=O)N3CCCC3)cc2)o1` returned an RP-LC retention time of 889 s. The figure for `CCS(=O)(=O)NCc1ccc2c(c1)CCN2C(=O)c1ccc(Cl)cc1` is 829 s; for `Cn1cc2c3c(cccc31)CN(C(=O)Nc1ccccc1C(F)(F)F)CC2` it is 978 s; for `Cn1nc(C(=O)N2C[C@@H]3C[C@H](NC(=O)c4cccnc4)[C@H]2C3)c2ccccc21` it is 636 s. Then `O=C(NCc1ccccn1)C1CCCN(c2nccnc2Sc2ccccc2)C1` (centres undefined), with 687 s.

Consider `Fc1cccc(-c2noc(Cc3nnc(-c4ccccc4)o3)n2)c1`, for which the RP-LC retention time was found to be 974 s. As to `O=C(NCC(c1cccnc1)c1c[nH]c2ccccc12)Nc1cccc(Br)c1` (centres undefined), the RP-LC retention time came to 714 s. The figure for `COc1ccc(NC(=O)Cn2c(C)nc3c(sc4nc(-c5ccccc5)ccc43)c2=O)c(OC)c1` is 1040 s. `CCN1CCC(N(Cc2ccc3c(c2)OCO3)C(=O)Nc2ccc(OC)cc2)CC1` had an RP-LC retention time of 641 s.

Turning to `COc1nccnc1NC1CCN(C(=O)Cc2ccsc2)CC1`, the RP-LC retention time worked out at 921 s. `CCOC(=O)C1=C(c2ccc(OC)cc2)NC(=O)NC1c1ccc(OC)cc1` (centres undefined) displayed an RP-LC retention time of 840 s. `O=C1COc2cc(S(=O)(=O)N3CCCC3C(=O)N3CCc4ccccc43)c(Cl)cc2N1` (centres undefined) gave an RP-LC retention time of 795 s.

For the molecule `COCCN1C(=O)CCc2cc(NC(=O)CC3CCCCC3)ccc21`, the RP-LC retention time was 814 s.

Molecule `Cc1noc(C)c1CCC(=O)Nc1ccccc1NC(=O)c1ccsc1` yielded an RP-LC retention time of 720 s. `O=C(c1ccncc1)N1CCCCC1c1nc(-c2ccc(F)cc2)no1` (centres undefined) returned an RP-LC retention time of 673 s. The figure for `O=C(NCc1ccc(F)cc1)N1CCc2nc(-c3ccccc3)ncc2C1` is 874 s. The figure for `CCN1c2cc(C)ccc2-n2cccc2C12CCN(C(=O)NCC(=O)OC)CC2` is 895 s; for `COc1ccc(CN2CCC3(CC2)CC(O)CCO3)cc1C` (centres undefined) it is 606 s; for `Cc1cccc(-c2noc(C3CCCN3S(=O)(=O)c3ccc(F)c(Cl)c3)n2)c1` (centres undefined) it is 1220 s. As for `CC(C)CCn1c(CCCC(=O)Nc2ccncc2)nc2cccnc21`, the RP-LC retention time was found to be 601 s. As for `Cc1c(Cl)cccc1N1C(=O)CN(S(C)(=O)=O)CC1(C)C(=O)NC1CCCCCC1` (centres undefined), the RP-LC retention time amounted to 938 s. For `CCOc1cc(-c2nc(C3CC(=O)N(c4ccc(CC)cc4)C3)no2)cc(OCC)c1OCC` (centres undefined), the RP-LC retention time was 1300 s. Then `CCc1nc(-c2csc(S(=O)(=O)N3CCCC(C(=O)Nc4ccc(F)c(Cl)c4)C3)c2)no1` (centres undefined), with 1130 s. Regarding `CC(C)c1ccc(NC(=O)CN2CCN(C(=O)Nc3ccc(Br)cc3)CC2=O)cc1`, the RP-LC retention time turned out to be 885 s. Molecule `CN1C(=O)C2CCCCN2c2ccc(C(=O)NCCN3CCCCC3)cc21` (centres undefined) had an RP-LC retention time of 609 s.

Consider `CCOC(=O)C1CCCN(C(=O)Cn2c3ccccc3c3cnn(C)c(=O)c32)C1` (centres undefined), for which the RP-LC retention time came out at 826 s.
